pKi: −log10 of the molar value. Values joined by “and” are separate entries in the source; they are usually repeats but may differ in a detail not shown here. Equal values may be shown once.
Experiments:
Histamine H1 receptor [1] = target: Histamine H1 receptor (Cavia porcellus, UniProt P31389)
Histamine H1 receptor [2] = target: Histamine H1 receptor (Homo sapiens, UniProt P35367)
Histamine H1 receptor (Homo sapiens, UniProt P35367), sequence (P35367 whole entry): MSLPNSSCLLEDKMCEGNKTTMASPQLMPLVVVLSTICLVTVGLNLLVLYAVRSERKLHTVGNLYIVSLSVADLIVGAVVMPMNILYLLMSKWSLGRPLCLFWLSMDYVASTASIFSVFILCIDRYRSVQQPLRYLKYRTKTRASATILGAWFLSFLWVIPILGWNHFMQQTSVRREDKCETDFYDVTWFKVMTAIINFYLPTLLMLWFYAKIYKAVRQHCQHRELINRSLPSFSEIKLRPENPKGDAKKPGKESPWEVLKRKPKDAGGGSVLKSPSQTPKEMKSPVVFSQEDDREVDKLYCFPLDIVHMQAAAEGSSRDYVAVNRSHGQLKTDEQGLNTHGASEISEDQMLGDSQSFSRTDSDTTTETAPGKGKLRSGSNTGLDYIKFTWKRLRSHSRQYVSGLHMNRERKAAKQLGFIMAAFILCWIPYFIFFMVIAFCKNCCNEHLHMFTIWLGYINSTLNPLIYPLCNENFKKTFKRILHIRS

Histamine H1 receptor (Cavia porcellus, UniProt P31389), sequence (P31389 whole entry): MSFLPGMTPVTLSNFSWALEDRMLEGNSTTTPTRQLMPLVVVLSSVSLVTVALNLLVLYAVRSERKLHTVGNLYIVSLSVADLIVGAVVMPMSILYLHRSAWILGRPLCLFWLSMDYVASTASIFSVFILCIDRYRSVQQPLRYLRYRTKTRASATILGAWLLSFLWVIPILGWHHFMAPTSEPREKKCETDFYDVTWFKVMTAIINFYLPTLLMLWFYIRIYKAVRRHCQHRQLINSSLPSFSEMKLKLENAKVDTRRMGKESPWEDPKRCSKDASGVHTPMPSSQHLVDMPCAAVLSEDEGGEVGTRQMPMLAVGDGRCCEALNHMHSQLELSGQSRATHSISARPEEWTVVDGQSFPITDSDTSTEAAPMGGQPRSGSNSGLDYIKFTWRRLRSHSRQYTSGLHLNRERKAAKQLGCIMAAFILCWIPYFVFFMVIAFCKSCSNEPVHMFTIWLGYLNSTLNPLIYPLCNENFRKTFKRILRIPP

SMILES | pKi (Histamine H1 receptor [1]) | pKi (Histamine H1 receptor [2])
NC(=NCCCc1cnc[nH]1)NC(=O)CC1CCCCC1 [UR-AK62] | 5.33 | 5.15
N=C(NCCCc1c[nH]cn1)NC(=O)CCCC1CCCCC1 [UR-AK64] | 6.46 | 6.00
CC(C(=O)NC(N)=NCCCc1cnc[nH]1)C1CCCCC1 (configuration not stated) [UR-AK59] | 4.96 | 5.22 and 5.64
N=C(NCCCc1c[nH]cn1)NC(=O)CCCc1ccccc1 [UR-AK67] | 5.66 | 4.85
CC(C(=O)NC(N)=NCCCc1cnc[nH]1)c1ccccc1 (configuration not stated) [UR-AK68] |  | 5.46
CC(CC(=O)NC(N)=NCCCc1cnc[nH]1)C1CCCCC1 (configuration not stated) [UR-AK24] | 5.59 and 5.80 | 
N=C(NCCCc1c[nH]cn1)NC(=O)CCCCc1ccccc1 [UR-AK22] | 6.36 | 5.54
